Source: patent US20210317490A1, “ANTICANCER COMPOUNDS” (priority 2017, published 2021)
Values after ≈ are worked out from the molar mass of the structure shown.

Tests used:
A549 = experiment: SRB colorimetric cytotoxicity assay, A549; assay type: cell-based, human; conditions: A549, 72 hours treatment; for TGI: total cell growth inhibition; for GI50 / CC50: Homo sapiens; for GI50: 50% cell growth inhibition; for CC50: 50% net cell killing, read-out: LC50 (the source's name)
Description: (§1) The aim of this assay is to evaluate the in vitro cytostatic (ability to delay or arrest tumor cell growth) or cytotoxic (ability to kill tumor cells) activity of the samples being tested.
(§2) A colorimetric assay, using sulforhodamine B (SRB) reaction has been adapted to provide a quantitative measurement of cell growth and viability (following the technique described by Skehan et al. J. Natl. Cancer Inst. 1990, 82, 1107-1112).
(§3) This form of assay employs 96-well cell culture microplates following the standards of the American National Standards Institute and the Society for Laboratory Automation and Screening (ANSI SLAS 1-2004 (R2012) 10/12/2011). All the cell lines used in this study were obtained from the American Type Culture Collection (ATCC) and derive from different types of human cancer.
(§4) Cells were maintained in Dulbecco's Modified Eagle Medium (DMEM) supplemented with 10% Fetal Bovine Serum (FBS), 2mM L-glutamine, 100 U/mL penicillin and 100 U/mL streptomycin at 37 ° C., 5% CO2 and 98% humidity. For the experiments, cells were harvested from subconfluent cultures using trypsinization and resuspended in fresh medium before counting and plating.
(§5) Cells were seeded in 96 well microtiter plates, at 5000 cells per well in aliquots of 150 μL and allowed to attach to the plate surface for 18 hours (overnight) in drug free medium. After that, one control (untreated) plate of each cell line was fixed (as described below) and used for time zero reference value. Culture plates were then treated with test compounds (50 μL aliquots of 4× stock solutions in complete culture medium plus 4% DMSO) using ten 2/5 serial dilutions (concentrations ranging from 10 to 0.003 μg/mL) and triplicate cultures (1% final concentration in DMSO). After 72 hours treatment, the antitumor effect was measured by using the SRB methodology: Briefly, cells were washed twice with PBS, fixed for 15 min in 1% glutaraldehyde solution at room temperature, rinsed twice in PBS, and stained in 0.4% SRB solution for 30 min at room temperature. Cells were then rinsed several times with 1% acetic acid solution and air-dried at room temperature. SRB was then extracted in 10 mM trizma base solution and the absorbance measured in an automated spectrophotometric plate reader at 490 nm. Effects on cell growth and survival were estimated by applying the NCI algorithm (Boyd M R and Paull K D. Drug Dev. Res. 1995, 34, 91-104).
(§6) The values obtained in triplicate cultures were fitted to a four-parameter logistic curve by nonlinear regression analysis. Three reference parameters were calculated (according to the NCI algorithm) by automatic interpolation of the curves obtained from such fitting: GI50=compound concentration that produces 50% cell growth inhibition, as compared to control cultures; TGI=total cell growth inhibition (cytostatic effect), as compared to control cultures, and LC50=compound concentration that produces 50% net cell killing cytotoxic effect).

HT29 = experiment: SRB colorimetric cytotoxicity assay, HT29; assay type: cell-based, human; conditions: for TGI: HT29, 72 hours treatment, total cell growth inhibition; for GI50 / CC50: Homo sapiens, HT-29, HT29, 72 hours treatment; for GI50: 50% cell growth inhibition; for CC50: 50% net cell killing, read-out: LC50 (the source's name)
Description: as §1, §2, §3, §4, §5, §6

PSN-1 = experiment: SRB colorimetric cytotoxicity assay, PSN1; assay type: cell-based, human; conditions: for GI50 / CC50: Homo sapiens, PSN1, PSN-1, 72 hours treatment; for GI50: 50% cell growth inhibition; for CC50: 50% net cell killing, read-out: LC50 (the source's name); for TGI: PSN-1, 72 hours treatment, total cell growth inhibition
Description: as §1, §2, §3, §4, §5, §6

MDA-MB-231 = experiment: SRB colorimetric cytotoxicity assay, MDA-MB-231; assay type: cell-based, human; conditions: MDA-MB-231, 72 hours treatment; for GI50 / LC50 (concentration giving 50% net cell killing): Homo sapiens; for GI50: 50% cell growth inhibition; for TGI: total cell growth inhibition
Description: as §1, §2, §3, §4, §5, §6

[1] = system: P-388 murine leukemia cell line; conditions: cited from earlier work; for IC50 against the P-388 murine leukemia cell line: mycalamides, J. Nat. Prod. 2000, 63, 704
[2] = toxicity lower than pederin; cited from earlier work
B104 cells = conditions: cited from earlier work
HeLa cells = conditions: cited from earlier work
[3] = system: EUE, E6D, HeLa, KB, Hep, AS, MEF, CE, BHK, Z1 and M1 cell lines; conditions: within four days, in all the cell lines analyzed; cited from earlier work

## C=C1CC(OC)(C(O)C(=O)NC(OC)C2CC(O)C(C)(C)C(CC(CO)OC)O2)OC(C)C1C (stereo not shown) [Compound 1]
A549
  TGI: 0.00797 µM
  GI50: 0.00204 µM
  CC50: 0.0368 µM
HT29
  TGI: 0.00899 µM
  GI50: 0.00286 µM
  CC50: > 0.204 µM
PSN-1
  GI50: 0.00266 µM
  CC50: 0.0194 µM
  TGI: 0.00572 µM
MDA-MB-231
  GI50: 0.00266 µM
  LC50 (concentration giving 50% net cell killing): 0.0108 µM
  TGI: 0.00531 µM

## C=C1CC(OC)(C(O)C(=O)NC(OC)C2CC(O)C(C)(C)C(CC(O)CO)O2)OC(C)C1C (stereo not shown) [Compound 2]
A549
  TGI: 0.0252 µM
  GI50: 0.00715 µM
  CC50: 0.122 µM
HT29
  TGI: 0.0442 µM
  GI50: 0.00883 µM
  CC50: > 2.1 µM
PSN-1
  GI50: 0.00862 µM
  CC50: 0.0778 µM
  TGI: 0.0191 µM
MDA-MB-231
  GI50: 0.0082 µM
  LC50 (concentration giving 50% net cell killing): 0.0315 µM
  TGI: 0.0156 µM

## C=C1CC(OC)(C(OC(C)=O)C(=O)NC(OC)C2CC(OC(C)=O)C(C)(C)C(CC(COC(C)=O)OC)O2)OC(C)C1C (stereo not shown) [Compound 3]
A549
  TGI: 0.877 µM
  GI50: 0.115 µM
  CC50: 8.61 µM
HT29
  TGI: 0.926 µM
  GI50: 0.162 µM
  CC50: > 16.2 µM
PSN-1
  GI50: 0.162 µM
  CC50: 3.9 µM
  TGI: 0.666 µM
MDA-MB-231
  GI50: 0.309 µM
  LC50 (concentration giving 50% net cell killing): > 16.2 µM
  TGI: 2.44 µM

## C=C1C[C@](OC)([C@H](O)C(=O)N[C@H]2OCO[C@H]3[C@@H]2O[C@H](C[C@H](O)CO)C(C)(C)[C@@H]3OC)O[C@H](C)[C@@H]1C [Mycalamide A]
[1]
  IC50 against the P-388 murine leukemia cell line: 3.0 ng/mL (≈ 5.96 nM)

## C=C1C[C@](OC)([C@H](O)C(=O)N[C@H]2OCO[C@H]3[C@@H]2O[C@H](CC(CO)OC)C(C)(C)[C@@H]3OC)O[C@H](C)[C@@H]1C (stereo partly shown) [Mycalamide B]
[1]
  IC50 against the P-388 murine leukemia cell line: 0.7 ng/mL (≈ 1.35 nM)

## C=C1C[C@](OC)([C@H](O)C(=O)NC[C@H]2O[C@H](CO)C(C)(C)[C@H](O)[C@H]2O)O[C@H](C)[C@@H]1C [Mycalamide C]
[1]
  IC50 against the P-388 murine leukemia cell line: 95.0 ng/mL (≈ 228 nM)

## C=C1C[C@](OC)([C@H](O)C(=O)N[C@H]2OCO[C@H]3[C@@H]2O[C@H](C[C@H](O)CO)C(C)(C)[C@@H]3O)O[C@H](C)[C@@H]1C [Mycalamide D]
[1]
  IC50 against the P-388 murine leukemia cell line: 35 ng/mL (≈ 71.5 nM)

## C=C1C[C@](OC)([C@H](O)C(=O)N[C@H]2OCO[C@H]3[C@@H]2O[C@H](C[C@H](O)CCC/C=C/C=C/C=C/C(=O)N[C@@H](CCCNC(=N)N)C(=O)O)C(C)(C)[C@@H]3OC)O[C@H](C)[C@@H]1C [Onnamide A]
[1]; U.S. Pat. No. 4,801,606
  IC50 against the murine P388 cell line: 1 ng/mL (≈ 1.26 nM)

## C=C1C[C@](OC)([C@H](O)C(=O)NC[C@@H]2C[C@H](O)C(C)(C)[C@@H](C[C@H](O)CCC/C=C/C=C/C=C/C(=O)N[C@@H](CCCNC(=N)N)C(=O)O)O2)O[C@H](C)[C@@H]1C [Onnamide E]
[1]; at a concentration of 0.4 μg/mL
  cytotoxic activity against the P388 cell line: did not show cytotoxic activity

## C=C1C[C@](O)([C@H](O)C(=O)N[C@@H](OC)[C@@H]2C[C@@H](O)C(C)(C)[C@@H](C[C@@H](COC)OC)O2)O[C@H](C)[C@@H]1C [Pseudopederin, pseudopederin]
[2]
  active dose relative to pederin: 10 times higher

## C=C1C[C@](OC)([C@H](O)C(=O)N[C@@H](O)[C@@H]2C[C@@H](O)C(C)(C)[C@@H](C[C@H](O)CO)O2)O[C@H](C)[C@@H]1C [diaphorin]
B104 cells
  IC50: ~1 µM
HeLa cells
  IC50: ~2 µM

## C=C1C[C@](OC)([C@H](O)C(=O)N[C@@H](OC)[C@@H]2C[C@@H](O)C(C)(C)[C@@H](CC(COC)OC)O2)O[C@H](C)[C@@H]1C (stereo partly shown) [pederin]
[3]
  concentration sufficient to cause cellular death: ~3 nM
